Experimental data taken from patent US9163032B2, “Esters of DCPLA and methods of treatment using the same” (Blanchette Rockefeller Neurosciences Institute, priority 2011, dated 2015).

How the values were obtained:
[1] = tested on: rat hippocampal neurons; experiment: Dendritic branching in seven day old rat hippocampal neurons (confocal microscopy); assay type: cell-based; conditions: 100 nM, 48 hr
Protocol: The effect of DCPLA-ME on development of primary neurons was investigated. Seven day old rat hippocampal neurons were treated with DCPLA-ME (100 nM) for 48 hr. Immunofluorescence and confocal microscopy-cells were grown in four chambered slides (Nunc, USA) at low density. For immunofluorescence staining the cells were washed with PBS (pH 7.4) and fixed with 4% paraformaldehyde for 4 min. Following fixation, cells were blocked and permeabilized with 5% serum and 0.3% Triton X-100 in 1×PBS for 30 min. Cells were washed 3× with 1×PBS and incubated with primary antibodies for 1 hr at 1:100 dilution. After the incubation slides were again washed 3× in 1×PBS and were incubated with the FITC anti-rabbit IgG and Rhodamine anti-mouse IgG for 1 hr at 1:400 dilution. Cells were further washed and mounted in Pro Long Gold antifade mounting solution (Invitrogen, USA). Stained cells were viewed under the LSM 710 Meta confocal microscope (Zeiss) at 350 nm, 490 nm and 540 nm excitation and 470 nm, 525 nm and 625 nm emission for DAPI, FITC and rhodamine respectively. Six individual fields at 20× or 63× oil lens magnification were analyzed for the mean fluorescence intensity (MFI) in each channel. The colocalization correlation was generated by the ZEN software (Zeiss).

[2] = tested on: PKC-ε mRNA; experiment: PKC-ε mRNA by RT-PCR in primary neurons; assay type: cell-based, rat; conditions: primary neurons treated with ASPD and/or DCPLA-ME, normalized to β-actin
Protocol: RNA was isolated from the cells using Trizol reagent (Invitrogen, USA) following the manufacturer's protocol. Briefly, 5 μg of the total RNA was reverse transcribed using oligo (dT) and Superscript III (Invitrogen, USA) at 50° C. for 1 hr. Two μl of the cDNA product was amplified using primers for PKC-ε (Forward Primer—[…], Reverse primer—[…] (Origene, Rockville, Md.)) and β-actin (Promega, USA) for 30 cycles following standard PCR protocols using a 55° C. annealing temperature. The PCR amplicons were analyzed in an E-Gel (Invitrogen, USA). The gel was imaged using a Fuji Image gel scanner (FLA-9000, Fuji Film) and densitometric quantification was performed using IMAL software (Blanchette Rockefeller Neurosciences Institute, Morgantown, W. Va.). Data were represented as normalized ratio of PKC-ε OD (Optical Density) against β-actin OD for three independent experiments.
Primary neurons were treated with ASPD and/or DCPLA-ME. PKC-ε mRNA was quantified by RT-PCR as described above. RNA prepared from control and treated cultured primary rat hippocampal neurons were isolated and reverse transcribed. Individual cDNA was amplified for PKC-ε and β-actin. PKC-ε expression was normalized to β-actin.

Row | Compound | Synaptophysin staining [1] | PKC-ε transcript levels [2]
1 | CCCCCC1CC1CC1CC1CCCCCCCC(=O)OC (stereo not drawn) [DCPLA-ME, DCPLA methyl ester] | increased | increased PKC-ε transcript levels
2 | ASPD: Amylospheroids from Aβ1-42, 100 kDa filter retentate, containing 39 monomers on average |  | did not change PKC-ε mRNA significantly
